How the values were obtained:
[1] = tested on: MelanoDerm™ tissues (MEL-300-B); assay: MelanoDerm quantification of melanin content; format: cell-based, human; details: 14 days; for Melanin content versus Kojic acid at 2%: 100 μM, Student t test
Description: (§1) The MelanoDerm™ cultures from MatTek Corporation (Ashland, Massachusetts, USA) are a pigmented 3D-Living Skin Equivalent model. MEL-300 tissues are obtained by seeding keratinocytes with melanocytes. MEL-300-B cultures contain melanocytes derived from a donor tissue and are used for the evaluation of skin lightening potential. MEL-300-B were prepared in a long life maintenance medium (EPI-100-LLMM available from the MatTek Corporation) and cultured for a total of 14 days. A total of four tissue replicates (n=4) was used per group.
(§2) Untreated tissue was used as negative control. Maintenance medium was refreshed every 2 days.
(§3) Urolithin A was applied to the samples by addition to the maintenance medium at a final concentration of 50 and 100 µM, prepared from a stock solution at 50 mM in DMSO. A vehicle control was prepared using DMSO at 0.2% in maintenance medium. Maintenance medium added in Urolithin A or DMSO was refreshed every 2 days. Kojic acid was used as a positive control at 2% in 50:50 butylene glycol: water and applied topically (i.e. on the stratum corneum, the outermost layer of the epidermis, of the MelanoDerm™ sample). Kojic acid is a well-known inhibitor of tyrosinase, a key enzyme that is responsible for melanogenesis in melanoma and melanocytes, and is used to treat hyperpigmentation, melasma, and wrinkle in cosmetics products. Every 2 days, tissues were rinsed with sterile PBS to remove Kojic acid prior to adding a fresh preparation of kojic acid at 2% in 50:50 butylene glycol: water. Maintenance medium was changed at the same time. • a. At day 14, all tissues were photographed by top view for macroscopic analysis of pigmentation using a Nikon Eclipse Ti microscope. […] It is also visible that tissues treated with Urolithin A at 50 and 100 μM are as light as the tissues treated with the positive control Kojic acid applied topically at 2%. • b. The lightness of the samples was assessed by measuring the L value using the Konica Minolta Color Spectrophotometer (CM-700d) at day 0, 4, 7, 11 and 14. The L value tells how light or dark the color is, with black corresponding to L=0 and white to L=100. FIG. 3 represents the L values measured in the difference samples. […] At the end of the treatment, the L-values of tissues treated with Urolithin A and Kojic acid are equivalent, confirming what is visible in FIG. 2. […] Three tissues per group were used for the quantification of melanin. Tissues were first incubated in PBS to remove any phenol red remaining from the maintenance medium. Tissues were placed in a 1.7 ml microfuge tube with 500 μl of Solvable™ (Tissue and Gel Solubilizer 0.5 M-Packard BioScience Co. Catalogue No. 6NE9100) and incubated at 95° C. overnight along with melanin standards. Melanin standards were prepared by dissolving melanin (Sigma catalog number M8631) in Solvable™ at 1 mg/ml to make stock solution.
Following overnight incubation, samples were centrifuged at 13000 rpm for 5 minutes to pellet any insoluble material. 200 μl of each sample were transferred to a 96-well plate and read at 490 nm. FIG. 4 represents the results for the melanin content expressed in μg. Statistical significance was performed using a one-way ANOVA, followed by a Dunnett post-hoc test for multiple comparison of each group against the negative control.

[2] = Solubility (water; topical cream); format: physicochemical; details: topical cream including lipophilic excipients, e.g. an oil and/or a medium chain triglyceride
[3] = Particle size distribution after micronisation (Malvern Mastersizer 2000); format: physicochemical; details: micronized, spiral jet mill
From the text: Urolithin A was micronized using an MC50 Spiral 20 Jetmill (Valortecs SAS, Blodelsheim, France), using filtered nitrogen, with a feed rate of 240 g/hr, a Venturi pressure of 12 bar, and a mill pressure of 12 bar. Urolithin A was micronized to give urolithin A having a particle size distribution of D90=9 μm to 15 μm and D50=2 to 9 μm. The actual particle size distribution was D90=11.5 μm, D50=3.9 μm, D10=0.7 μm, measured using a Malvern Mastersizer 2000.

[4] = tested on: MelanoDerm™ tissues (MEL-300-B); assay: MelanoDerm macroscopic analysis of pigmentation (top view); format: cell-based, human; details: day 14
Description: as §1, §2
as §3, with “Melanin standards were prepared by dissolving melanin (Sigma catalog number M8631) in Solvable™ at 1 mg/ml to make stock solution.” left out

rodents = details: cited from earlier work
[5] = tested on: EpiDerm™ tissues (EPI-200, normal human-derived epidermal keratinocytes); assay: EpiDerm skin cell viability (MTT) assay; format: cell-based; details: 96 hours; for Relative cell viability (% of negative control): basolateral, 90% = irritant threshold
Description: Pre-screen treatment conditions: A good skin lightener should inhibit melanin synthesis but not cause cytotoxicity to the tissue. The impact of Urolithin A on skin cells viability was performed with the EpiDerm tissue (EPI-200). The reconstructed human epidermal model EpiDerm™ (EPI-200, MatTek, Ashland, USA) consists of normal human-derived epidermal keratinocytes, which have been cultured to form a multilayered highly differentiated model of the human epidermis.
Tissues were grown in maintenance medium (EPI-100-LLMM available from the MatTek Corporation). Treatment was done basolaterally, i.e. with the test compounds dissolved in the maintenance medium, for a total duration of 96 hours. Two EpiDerm™ tissues (n=2) were used per condition, which were 1) water, 2) DMSO 0.5%, 3) Urolithin A 25 μM, 4) Urolithin A 50 μM and 5) Urolithin A 100 μM. Maintenance medium added or not in Urolithin A or DMSO was refreshed at 48 hours.
Cell viability is measured by dehydrogenase conversion of MTT [(3-4,5-dimethylthiazole-2-yl) 2,5-diphenyltetrazoliumbromide], present in cell mitochondria, into a blue formazan salt that is quantitatively measured after extraction from tissues. The MTT assay was performed by transferring the tissues to 24-well plates containing MTT medium (1 mg/ml). After a 3 hr MTT incubation, the blue formazan salt formed by cellular mitochondria was extracted with 2.0 ml/tissue of isopropanol (extractant solution, part #MTT-100-EXT) and the optical density of the extracted formazan was determined using a spectrophotometer at 570 nm. Relative cell viability was calculated for each tissue as % of the mean of the negative control tissues.

[6] = tested on: MelanoDerm™ tissues (MEL-300-B); assay: MelanoDerm lightness, L value by color spectrophotometer; format: cell-based, human; details: for L value versus negative control group: from day 4 until day 14
Description: as §1, §2, §3

SMILES: O=c1cc(CO)occ1O [Kojic acid, reference compound]
- Decrease of melanin content compared to the negative control ([1]; 2% in 50:50 butylene glycol:water, applied topically): 62%

SMILES: O=c1oc2cc(O)ccc2c2ccc(O)cc12 [Urolithin A]
- Solubility in topical cream composition [2]: especially soluble
- Particle size D10 [3]: 0.7 μm
- Particle size D50 [3]: 3.9 μm
- Particle size D90 [3]: 11.5 μm
- Decrease of melanin content compared to the negative control ([1]; 50 μM in maintenance medium): 65%
- Decrease of melanin content compared to the negative control ([1]; 100 μM in maintenance medium): 67%
- Melanin content versus Kojic acid at 2% [1]: significantly lower
- Melanin content versus Kojic acid at 2% ([1]; listed as urolithin A): greater decrease in melanin content
- Macroscopic pigmentation versus negative control and DMSO 0.2% group ([4]; 50 μM in maintenance medium): consistently lighter
- Macroscopic pigmentation versus positive control Kojic acid 2% topical ([4]; 50 μM in maintenance medium): as light as
- Macroscopic pigmentation versus negative control and DMSO 0.2% group ([4]; 100 μM in maintenance medium): consistently lighter
- Macroscopic pigmentation versus positive control Kojic acid 2% topical ([4]; 100 μM in maintenance medium): as light as
- Mitophagy (rodents; in vivo): induces mitophagy
- Lifespan (rodents; rodents): increases lifespan
- Relative cell viability (% of negative control) ([5]; Urolithin A 25 μM): higher than 90%
- Relative cell viability (% of negative control) ([5]; Urolithin A 50 μM): higher than 90%
- Relative cell viability (% of negative control) ([5]; Urolithin A 100 μM): higher than 90%
- Effect on skin cell viability / cytotoxicity ([5]; at the tested concentrations (25, 50, 100 μM)): does not impair skin cell viability
- Speed of tissue-lightening effect versus Kojic acid ([6]; 50 μM): faster tissue-lightening effects
- L value versus negative control group ([6]; 50 μM): significantly higher
- Speed of tissue-/skin-lightening effect versus Kojic acid ([6]; 100 μM): faster tissue-lightening effects
- L value versus negative control group ([6]; 100 μM): significantly higher
- Speed of tissue-/skin-lightening effect versus Kojic acid ([6]; 100 μM, listed as urolithin A): faster skin-lightening effects
- L value versus tissues treated with Kojic acid ([6]; Urolithin A 50 or 100 μM, day 4 and 7): higher L value
- L value versus tissues treated with Kojic acid ([6]; end of the treatment (day 14)): equivalent

— patent US20250381118A1, “SKIN TREATMENT METHODS” (Amazentis SA, priority 2017, published 2025)
